The record followed here is patent US11066369B2, “N-(pyridin-2-yl)pyridine-sulfonamide derivatives and their use in the treatment of disease” (Novartis AG, priority 2016, dated 2021).

Usually EC50 stands for the midpoint of the concentration-response curve.

Read-outs that look alike come from different tables or passages of the source.

The assay addresses T1, horseradish peroxidase (HRP) tagged delF508-CFTR (Homo sapiens, UniProt P13569, DEL508-508).
T1 construct: expressed in transfected cells
Briefly: Measurement of delF508-CFTR-HRP surface expression in CFBE41o- cells.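 As to DelF508-CFTR-HRP Amax %: percent efficacy relative to reference corrector lumacaftor.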 It is filed as cell-based. To be noted: for Emax: read-out: DelF508-CFTR-HRP Amax %. A digest of the protocol: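 CFBE41o- bronchial epithelial cells stably expressing delF508-CFTR with HRP in the fourth extracellular loop; expression induced 48h with 500 ng/mL doxycycline, then compounds added (top 10 μM, 10-point 3-fold series, ≤0.5% DMSO) for 24h at 37° C. Surface HRP measured by luminescence with cell-impermeant substrate; EC50 from logistic fit of triplicates, plate-normalized to lowest concentration; efficacy also relative to a reference corrector.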

[1] abbreviates: CFBE41o- cells, mean of at least two replicates, read-out: DelF508-CFTR-HRP EC50.
[2] abbreviates: delF508-CFTR-HRP surface expression, CFBE41o- cells.
[3] abbreviates: delF508-CFTR-HRP surface expression, CFBE41o- cells, read-out: DelF508-CFTR-HRP EC50.
[4] abbreviates: CFBE41o- cells, surface expression Amax.

T1 sequence (P13569 with tags, fused parts or gaps DEL508-508): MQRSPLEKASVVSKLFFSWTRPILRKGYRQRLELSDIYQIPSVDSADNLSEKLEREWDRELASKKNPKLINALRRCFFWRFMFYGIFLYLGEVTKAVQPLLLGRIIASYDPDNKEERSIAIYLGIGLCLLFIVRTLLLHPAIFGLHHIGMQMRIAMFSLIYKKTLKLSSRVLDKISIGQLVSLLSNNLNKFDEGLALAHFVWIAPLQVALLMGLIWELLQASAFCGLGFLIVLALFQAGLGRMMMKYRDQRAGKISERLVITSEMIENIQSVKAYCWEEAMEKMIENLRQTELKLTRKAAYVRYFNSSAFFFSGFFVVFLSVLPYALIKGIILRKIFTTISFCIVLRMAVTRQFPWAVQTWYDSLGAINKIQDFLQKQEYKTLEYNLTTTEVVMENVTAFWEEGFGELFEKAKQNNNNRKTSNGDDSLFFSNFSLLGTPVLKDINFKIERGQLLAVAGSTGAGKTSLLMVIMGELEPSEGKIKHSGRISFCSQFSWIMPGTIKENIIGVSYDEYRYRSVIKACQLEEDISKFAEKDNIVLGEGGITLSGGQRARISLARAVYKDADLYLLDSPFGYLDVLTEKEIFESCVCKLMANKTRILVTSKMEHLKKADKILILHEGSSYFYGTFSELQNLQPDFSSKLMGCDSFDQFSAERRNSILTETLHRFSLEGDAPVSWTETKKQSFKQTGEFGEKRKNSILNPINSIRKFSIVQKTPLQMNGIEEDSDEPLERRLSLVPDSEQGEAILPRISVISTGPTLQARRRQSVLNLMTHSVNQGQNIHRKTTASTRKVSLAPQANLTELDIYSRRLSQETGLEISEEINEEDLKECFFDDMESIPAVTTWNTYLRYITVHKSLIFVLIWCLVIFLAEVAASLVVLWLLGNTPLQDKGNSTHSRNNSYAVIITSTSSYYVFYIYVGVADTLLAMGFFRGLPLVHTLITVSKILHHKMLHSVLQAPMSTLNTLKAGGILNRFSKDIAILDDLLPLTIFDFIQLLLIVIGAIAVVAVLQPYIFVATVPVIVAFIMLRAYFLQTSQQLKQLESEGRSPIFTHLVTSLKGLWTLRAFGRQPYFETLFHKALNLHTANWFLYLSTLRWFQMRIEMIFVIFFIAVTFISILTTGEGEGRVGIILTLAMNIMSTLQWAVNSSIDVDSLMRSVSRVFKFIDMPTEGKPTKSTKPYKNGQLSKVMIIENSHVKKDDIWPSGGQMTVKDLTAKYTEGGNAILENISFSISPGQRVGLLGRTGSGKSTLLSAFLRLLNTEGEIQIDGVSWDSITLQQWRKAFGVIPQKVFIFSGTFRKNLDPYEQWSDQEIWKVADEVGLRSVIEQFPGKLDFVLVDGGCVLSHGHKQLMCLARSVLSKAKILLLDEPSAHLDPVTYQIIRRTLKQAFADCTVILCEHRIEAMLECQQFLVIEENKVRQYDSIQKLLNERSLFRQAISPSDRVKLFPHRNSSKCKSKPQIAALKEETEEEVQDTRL

For the molecule `CC(C)c1ccccc1-c1nc(NS(=O)(=O)c2cccc(N3CCC[C@@H]4[C@@H](C(=O)O)C[C@@H]43)n2)ccc1C(F)(F)F` (racemic) [Example 442, rac-(1SR,6RS,7SR)-2-(6-(N-(6-(2-isopropylphenyl)-5-(trifluoromethyl)pyridin-2-yl)sulfamoyl)pyridin-2-yl)-2-azabicyclo[4.2.0]octane-7-carboxylic Acid], under setting [1], the EC50 worked out at 1.24 µM.

`Cc1cccc(C)c1-c1nc(NS(=O)(=O)c2cccc(N3CCC(NC(=O)OC(C)(C)C)(C(=O)O)CC3)n2)ccc1Cl` [Example 268, 4-{[(tert-butoxy)carbonyl]amino}-1-(6-{[5-chloro-6-(2,6-dimethylphenyl)pyridin-2-yl]sulfamoyl}pyridin-2-yl)piperidine-4-carboxylic Acid]: the Emax under setting [2] stood at 103%. In addition, the EC50 under setting [3] is 3.73 µM. On to `Nc1cccc(S(=O)(=O)Nc2ccc(Cl)c(-c3c(F)cc(F)cc3F)n2)n1` [Example 86, 6-amino-N-(5-chloro-6-(2,4,6-trifluorophenyl)pyridin-2-yl)pyridine-2-sulfonamide], for which, under setting [2], the Emax worked out at 108%. The EC50 under setting [3] came to 3.53 µM. As to `CCCOc1ccccc1-c1nc(NS(=O)(=O)c2cccc(N3CCC[C@@](C)(C(=O)O)C3)n2)ccc1C(F)(F)F` [Example 329, (R)-3-methyl-1-(6-(N-(6-(2-propoxyphenyl)-5-(trifluoromethyl)pyridin-2-yl)sulfamoyl)pyridin-2-yl)piperidine-3-carboxylic Acid], the EC50 under setting [3] was found to be 0.93 µM. Regarding `Cc1cccc(F)c1-c1nc(NS(=O)(=O)c2cccc(N)n2)ccc1Cl` [Example 31, 6-amino-N-(5-chloro-6-(2-fluoro-6-methylphenyl)pyridin-2-yl)pyridine-2-sulfonamide], the Emax under setting [2] turned out to be 418%. The EC50 under setting [3] worked out at 1.32 µM. As for `CCC[C@@H]1CCN(c2cccc(S(=O)(=O)Nc3ccc(C(F)(F)F)c(-c4ccccc4C)n3)n2)[C@H]2C[C@H](C(=O)O)[C@@H]12` (racemic) [Example 404, rac-(1SR,5RS,6RS,7SR)-5-propyl-2-(6-(N-(6-(o-tolyl)-5-(trifluoromethyl)pyridin-2-yl)sulfamoyl)pyridin-2-yl)-2-azabicyclo[4.2.0]octane-7-carboxylic Acid], the EC50 under setting [1] amounted to 0.786 µM. In the case of `CCCC1(C(=O)O)CCCN(c2cccc(S(=O)(=O)Nc3ccc(Cl)c(-c4c(C)cccc4C)n3)n2)C1` (centres unmarked) [Example 457, 1-(6-(N-(5-chloro-6-(2,6-dimethylphenyl)pyridin-2-yl)sulfamoyl)pyridin-2-yl)-3-propylpiperidine-3-carboxylic Acid], the EC50 under setting [1] amounted to 0.622 µM. The Emax under setting [4] came to 702%.

Turning to `C[C@@]1(C(=O)O)CCCN(c2cccc(S(=O)(=O)Nc3ccc(C(F)(F)F)c(-c4ccccc4C4CCC4)n3)n2)C1` [Example 383, (R)-1-(6-(N-(6-(2-cyclobutylphenyl)-5-(trifluoromethyl)pyridin-2-yl)sulfamoyl)pyridin-2-yl)-3-methylpiperidine-3-carboxylic Acid], under setting [1], the EC50 came to 0.498 µM. Consider `Cc1ccccc1-c1nc(NS(=O)(=O)c2cccc(N3CCC34CNC4)n2)ccc1C(F)(F)F` [Example 313, 6-(1,6-diazaspiro[3.3]heptan-1-yl)-N-(6-(o-tolyl)-5-(trifluoromethyl)pyridin-2-yl)pyridine-2-sulfonamide], for which the Emax under setting [2] was 128%. Moreover, under setting [3], the EC50 stood at 4.57 µM. As for `Cc1ccccc1-c1nc(NS(=O)(=O)c2cccc(N3CCNC[C@@H]3C(=O)O)n2)ccc1C(F)(F)F` [Example 353, (2R)-1-(6-{[6-(2-methylphenyl)-5-(trifluoromethyl)pyridin-2-yl]sulfamoyl}pyridin-2-yl)piperazine-2-carboxylic Acid], the Emax under setting [2] was 118%. The EC50 under setting [3] was 2.8 µM.

Regarding `Cc1cccc(C)c1-c1nc(NS(=O)(=O)c2cccc(N3CCC[C@@](C)(C(=O)O)C3)n2)ccc1Cl` [Example 448, (R)-1-(6-(N-(5-chloro-6-(2,6-dimethylphenyl)pyridin-2-yl)sulfamoyl)pyridin-2-yl)-3-methylpiperidine-3-carboxylic Acid], the concentration giving a half-maximal response (EC50) under setting [1] amounted to 1.49 µM.

Regarding `Cc1ccccc1-c1nc(NS(=O)(=O)c2cccc(N3CC[C@@H](C(=O)O)C3)n2)ccc1C(F)(F)F` [Example 349, (3R)-1-(6-{[6-(2-methylphenyl)-5-(trifluoromethyl)pyridin-2-yl]sulfamoyl}pyridin-2-yl)pyrrolidine-3-carboxylic Acid], the Emax under setting [2] stood at 252%. Besides, the EC50 under setting [3] came out at 1.64 µM.

With `COc1ccccc1-c1nc(NS(=O)(=O)c2cccc(N)n2)ccc1Cl` [Example 76, 6-amino-N-(5-chloro-6-(2-methoxyphenyl)pyridin-2-yl)pyridine-2-sulfonamide], the Emax under setting [2] is 156%. The EC50 under setting [3] amounted to 2.3 µM.

On to `CC1(C(=O)O)CCN(c2cccc(S(=O)(=O)Nc3ccc(Cl)c(-c4ccc(F)cc4Cl)n3)n2)CC1` [Example 243, 1-(6-(N-(5-chloro-6-(2-chloro-4-fluorophenyl)pyridin-2-yl)sulfamoyl)pyridin-2-yl)-4-methylpiperidine-4-carboxylic Acid], for which, under setting [2], the Emax amounted to 152%. The EC50 under setting [3] was 2.6 µM.

Take `Cc1ccccc1-c1nc(NS(=O)(=O)c2cccc(N3CCC[C@](C)(C(=O)O)C3)n2)ccc1C(F)(F)F` [Example 428, (3S)-3-methyl-1-(6-{[6-(2-methylphenyl)-5-(trifluoromethyl)pyridin-2-yl]sulfamoyl}pyridin-2-yl)piperidine-3-carboxylic Acid]: the EC50 under setting [1] is 1.68 µM. The Emax under setting [4] was 713%. `Cc1ccccc1-c1nc(NS(=O)(=O)c2cccc(N3[C@@H]4CC[C@H]3[C@@H](C(=O)O)C4)n2)ccc1C(F)(F)F` [Example 462, (1S,2S,4R)-7-(6-(N-(6-(o-tolyl)-5-(trifluoromethyl)pyridin-2-yl)sulfamoyl)pyridin-2-yl)-7-azabicyclo[2.2.1]heptane-2-carboxylic Acid] returned an EC50 of 2.93 µM. Moreover, the Emax under setting [4] is 108%.

Consider `C[C@@]1(C(=O)O)CCCN(c2cccc(S(=O)(=O)Nc3ccc(C(F)(F)F)c(-c4ccccc4C4CC4)n3)n2)C1` [Example 413, (R)-1-(6-(N-(6-(2-cyclopropylphenyl)-5-(trifluoromethyl)pyridin-2-yl)sulfamoyl)pyridin-2-yl)-3-methylpiperidine-3-carboxylic Acid], for which, under setting [1], the half-maximal effective concentration (EC50) was 0.576 µM. Also, the Emax under setting [4] amounted to 906%. The like results for `CC(C)COc1ccccc1-c1nc(NS(=O)(=O)c2cccc(N3CCCC(C)(C(=O)O)C3)n2)ccc1Cl` (centres unmarked) [Example 400, 1-(6-(N-(5-chloro-6-(2-isobutoxyphenyl)pyridin-2-yl)sulfamoyl)pyridin-2-yl)-3-methylpiperidine-3-carboxylic Acid] were, in that order, 1.1 µM and 672%. Turning to `Cc1ccccc1-c1nc(NS(=O)(=O)c2cccc(N3CCN(C(=O)OC(C)(C)C)[C@@H](C(=O)O)C3)n2)ccc1C(F)(F)F` [Example 338, (2R)-1-[(tert-butoxy)carbonyl]-4-(6-{[6-(2-methylphenyl)-5-(trifluoromethyl)pyridin-2-yl]sulfamoyl}pyridin-2-yl)piperazine-2-carboxylic Acid], the Emax under setting [2] came out at 542%. For the same molecule, under setting [3], the EC50 was found to be 2.81 µM. As to `Cc1ccccc1-c1nc(NS(=O)(=O)c2cccc(NC3CCC(C(=O)O)C3)n2)ccc1C(F)(F)F` (mixture of isomers) [Example 459, 3-((6-(N-(6-(o-tolyl)-5-(trifluoromethyl)pyridin-2-yl)sulfamoyl)pyridin-2-yl)amino)cyclopentanecarboxylic Acid], the EC50 under setting [1] came out at 2.36 µM. Besides, under setting [4], the Emax is 332%. `Cc1cccc(C(F)(F)F)c1-c1nc(NS(=O)(=O)c2cccc(N)n2)ccc1Cl` [Example 53, 6-amino-N-(5-chloro-6-(2-methyl-6-(trifluoromethyl)phenyl)pyridin-2-yl)pyridine-2-sulfonamide]: under setting [2], the Emax turned out to be 325%. The EC50 under setting [3] stood at 1.84 µM. For the molecule `Cc1ccccc1-c1nc(NS(=O)(=O)c2cccc(N3CCCC4(CC4C(=O)O)C3)n2)ccc1C(F)(F)F` (centres unmarked) [Example 441, 5-(6-(N-(6-(o-tolyl)-5-(trifluoromethyl)pyridin-2-yl)sulfamoyl)pyridin-2-yl)-5-azaspiro[2.5]octane-1-carboxylic Acid], under setting [1], the EC50 stood at 2.31 µM. Under setting [4], the Emax was 299%.

Take `Cc1ccccc1-c1nc(NS(=O)(=O)c2cccc(N)n2)ccc1C1CC1` [Example 66, 6-amino-N-(5-cyclopropyl-6-(o-tolyl)pyridin-2-yl)pyridine-2-sulfonamide]: the Emax under setting [2] is 215%. In addition, the EC50 under setting [3] stood at 3.07 µM.

`Cc1cccc(C)c1-c1nc(NS(=O)(=O)c2cccc(N3CCC(O)(C(=O)O)CC3)n2)ccc1Cl` [Example 261, 1-(6-{[5-chloro-6-(2,6-dimethylphenyl)pyridin-2-yl]sulfamoyl}pyridin-2-yl)-4-hydroxypiperidine-4-carboxylic Acid]: the Emax under setting [2] is 22.8%. Also, the 50% effective concentration (EC50) under setting [3] stood at 4.14 µM. The like results for `Cc1ccccc1-c1nc(NS(=O)(=O)c2cccc(N3CCC(C)(C(=O)O)C3)n2)ccc1C(F)(F)F` (centres unmarked) [Example 336, 3-methyl-1-(6-{[6-(2-methylphenyl)-5-(trifluoromethyl)pyridin-2-yl]sulfamoyl}pyridin-2-yl)pyrrolidine-3-carboxylic Acid] were, in that order, 266% and 1.76 µM. With `CC1(C(=O)O)CCCN(c2cccc(S(=O)(=O)Nc3ccc(C(F)(F)F)c(-c4ccccc4CO)n3)n2)C1` (centres unmarked) [Example 444, 1-(6-(N-(6-(2-(hydroxymethyl)phenyl)-5-(trifluoromethyl)pyridin-2-yl)sulfamoyl)pyridin-2-yl)-3-methylpiperidine-3-carboxylic Acid], under setting [1], the half-maximal effective concentration (EC50) was 4.06 µM. In addition, the Emax under setting [4] was 47.5%.
